Here are results for three compounds from patent publication US8217039B2, “Aprepitant polymorph mixtures” (Dr. Reddy's Laboratories Ltd., priority 2006, dated 2012).

In brackets after ≈: the same amount, converted by molar mass.

For data set [1] the following is noted: 2:1 v/v methanol/water mixture at 0° C.; cited from earlier work.
Data set [2] in a line: Stability studies of 50:50 intimate mixture under stress conditions (Form I to Form II ratio by XRPD). Format: physicochemical. Particulars: milling, micronization, or drying at about 90° C. for prolonged periods. The method, then:
Experimental conditions for performing the XRPD analysis for quantification were as follows: Process the diffraction peak for Form II≈21.15° (2θ) with constant smooth factor of 0.07 to check the detection of Form II and for the quantification of Form II the area of Form II peak and reference peak of Form I were taken. The Form I and Form II areas of two preparations of the test sample were noted. Then average the Form I and Form II areas. The percentage of Form II in Form I is calculated by the following formula: % of Form II=[(S2/S1)÷K=(S2/S1)]×100 • S1=Area of peak corresponding to Form I • S2=Area of peak corresponding to Form II K=Response constant for Form II relative to Form I. The areas of the peaks associated with Form I and Form II (characteristic peaks) were measured using Bruker X-ray diffraction evaluation software. From these areas, the response constant for Form II relative to Form I was determined. The value for the K factor was 0.32. A 50:50 weight ratio intimate mixture of aprepitant Form I and Form II prepared using the process of Example 12 was subjected to different conditions to determine the stability of the mixture under stress conditions.

The conditions of data set [3]: cited from earlier work.

Consider `C[C@@H](O[C@H]1OCCN(Cc2n[nH]c(=O)[nH]2)[C@H]1c1ccc(F)cc1)c1cc(C(F)(F)F)cc(C(F)(F)F)c1` [Form II, 5-[[(2R,3S)-2-[(1R)-1-[3,5-bis(trifluoromethyl)phenyl]ethoxy]-3-(4-fluorophenyl)-4-morpholinyl]methyl]-1,2-dihydro-3H-1,2,4-triazol-3-one], for which, in data set [1], the “numeric ratio of solubilities (Form II vs Form I)” value is 1.4 and the solubility was 1300 ± 200 µg/mL (≈ 2430 µM).

For `C[C@@H](O[C@H]1OCCN(Cc2n[nH]c(=O)[nH]2)[C@H]1c1ccc(F)cc1)c1cc(C(F)(F)F)cc(C(F)(F)F)c1` [5-[[(2R,3S)-2-[(1R)-1-[3,5-bis(trifluoromethyl)phenyl]ethoxy]-3-(4-fluorophenyl)-4-morpholinyl]methyl]-1,2-dihydro-3H-1,2,4-triazol-3-one], in data set [2], the “conversion to Form I upon stress conditions” value is on record as “does not convert to the more stable Form I”.

Take `C[C@@H](O[C@H]1OCCN(Cc2n[nH]c(=O)[nH]2)[C@H]1c1ccc(F)cc1)c1cc(C(F)(F)F)cc(C(F)(F)F)c1` [Form I, 5-[[(2R,3S)-2-[(1R)-1-[3,5-bis(trifluoromethyl)phenyl]ethoxy]-3-(4-fluorophenyl)-4-morpholinyl]methyl]-1,2-dihydro-3H-1,2,4-triazol-3-one]: in data set [1], the solubility was 900 ± 100 µg/mL (≈ 1680 µM). Further, the “thermodynamic stability compared with other crystalline forms” value in data set [3] (compared with Form II) was “superior thermodynamic stability”. In addition, the hygroscopicity result in data set [3] (compared with other crystalline forms) is “non-hygroscopic”.

For orientation: solubility means how much of the substance goes into solution per volume.
